From publication PMC8659057, “Chemical Constituents from the Wild Atractylodes macrocephala Koidz and Acetylcholinesterase Inhibitory Activity Evaluation as Well as Molecular Docking Study” (Molecules, 2021)
Like-named read-outs stand apart in the source and are kept apart here.

Molecular target: acetylcholinesterase (AChE, Type VI-S, from electric eel) (Electrophorus electricus, UniProt O42275)
Experiment: modified Ellman colorimetric AChE inhibition assay
Format: biochemical

Chain of acetylcholinesterase (AChE, Type VI-S, from electric eel) (O42275 24-633): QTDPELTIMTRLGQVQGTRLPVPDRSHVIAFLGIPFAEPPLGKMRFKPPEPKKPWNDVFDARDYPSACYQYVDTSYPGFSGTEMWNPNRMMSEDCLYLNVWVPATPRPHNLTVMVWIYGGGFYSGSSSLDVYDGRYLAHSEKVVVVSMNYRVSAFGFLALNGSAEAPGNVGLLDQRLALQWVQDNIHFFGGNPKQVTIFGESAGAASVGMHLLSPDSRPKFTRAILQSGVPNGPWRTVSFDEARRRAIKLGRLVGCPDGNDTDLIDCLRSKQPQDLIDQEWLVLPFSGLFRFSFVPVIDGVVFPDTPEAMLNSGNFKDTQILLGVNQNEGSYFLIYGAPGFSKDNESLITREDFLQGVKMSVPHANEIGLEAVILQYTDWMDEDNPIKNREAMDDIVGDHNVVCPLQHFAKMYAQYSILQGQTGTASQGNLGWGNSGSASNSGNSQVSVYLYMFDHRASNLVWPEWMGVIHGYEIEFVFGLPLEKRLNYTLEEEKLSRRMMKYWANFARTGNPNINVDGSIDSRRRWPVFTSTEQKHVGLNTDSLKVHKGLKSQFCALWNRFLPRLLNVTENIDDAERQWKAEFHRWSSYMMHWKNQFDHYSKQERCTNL

SMILES | IC50 (read-out: IC50 (converted)) [µM] | IC50 [µM]
C=C1CCC[C@]2(C)C[C@]3(O)OC(=O)C(C)=C3C[C@@H]12 [compound 1, atractylenolide III] | 247 | 
C=C1C(OC(C)=O)CCC2(C)CC3(C45CC6(C)CCC(OC(C)=O)C(=C)C6CC4=C(C)C(=O)O5)OC(=O)C(C)=C3CC12 (centres unmarked) [compound 5, biatractylenolide II] |  | 33.9
